The values below come from patent US8492394B2, “(3-aryl-piperazin-1-yl), (2-aryl-morpholin-4-yl) and (2-aryl-thiomorpholin-4-yl) derivatives of 6,7-dialkoxy-quinazoline, 6,7-dialkoxyphtalazine and 6,7-dialkoxyisoquinoline as PDE10A enzyme inhibitors” (H. Lundbeck A/S, priority 2006, dated 2013).

Structures are written as SMILES.

Sequence of PDE10A enzyme (Q9Y233 716-1055): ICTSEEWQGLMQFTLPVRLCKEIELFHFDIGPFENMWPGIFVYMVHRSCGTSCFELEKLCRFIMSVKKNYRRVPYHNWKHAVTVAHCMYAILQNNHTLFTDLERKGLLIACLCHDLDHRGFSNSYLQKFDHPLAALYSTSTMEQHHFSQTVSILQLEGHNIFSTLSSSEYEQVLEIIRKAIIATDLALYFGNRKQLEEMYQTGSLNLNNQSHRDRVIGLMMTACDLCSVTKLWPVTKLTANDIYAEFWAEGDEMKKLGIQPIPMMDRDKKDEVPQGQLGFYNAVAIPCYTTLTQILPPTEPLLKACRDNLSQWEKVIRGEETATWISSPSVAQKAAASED

One assay addresses PDE10A enzyme (Homo sapiens (Human), UniProt Q9Y233). In words: PDE10A inhibition assay. As to conditions: tritium labeled cAMP 5 nM, SPA; read-out: PDE10 IC50. The class given is biochemical. On the procedure:
Active PDE10A enzyme is prepared in a number of ways for use in PDE assays (Loughney, K. et al. Gene 1999, 234, 109-117; Fujishige, K. et al. Eur J. Biochem. 1999, 266, 1118-1127 and Soderling, S. et al. Proc. Natl. Acad. Sci. 1999, 96, 7071-7076). PDE10A can be expressed as full-length proteins or as truncated proteins, as long as they express the catalytic domain. PDE10A can be prepared in different cell types, for example insect cells or E. coli. An example of a method to obtain catalytically active PDE10A is as follows: The catalytic domain of human PDE10A (amino acids 440-779 from the sequence with accession number NP 006652) is amplified from total human brain total RNA by standard RT-PCR and is cloned into the BamH1 and Xho 1 sites of the pET28a vector (Novagen). Expression in coli is performed according to standard protocols. Briefly, the expression plasmids are transformed into the BL21 (DE3) E. coli strain, and 50 mL cultures inoculated with the cells allowed to grow to an OD600 of 0.4-0.6 before protein expression is induced with 0.5 mM IPTG. Following induction, the cells are incubated overnight at room temperature, after which the cells are collected by centrifugation. Cells expressing PDE10A are resuspended in 12 mL (50 mM TRIS-HCl-pH8.0, 1 mM MgCl2 and protease inhibitors). The cells are lysed by sonication, and after all cells are lysed, TritonX100 is added according to Novagen protocols.
PDE10A assays have been described previously (Loughney, K. et al. Gene 1999, 234, 109-117; Fujishige, K. et al. Eur J Biochem. 1999, 266, 1118-1127 and Soderling, S. et al. Proc. Natl. Acad. Sci. 1999, 96, 7071-7076). PDE10A assays could for example can be performed as follows: PDE10A assays are performed in 60 uL samples containing a fixed amount of the relevant PDE enzyme (sufficient to convert 20-25% of the cyclic nucleotide substrate), a buffer (50 mM HEPES7.6; 10 mM MgCl2; 0.02% Tween20), 0.1 mg/ml BSA, 225 pCi of ^3H-labelled cyclic nucleotide substrate, tritium labeled cAMP to a final concentration of 5 nM and varying amounts of inhibitors. Reactions are initiated by addition of the cyclic nucleotide substrate, and reactions are allowed to proceed for one hr at room temperature before being terminated through mixing with 15 uL 8 mg/mL yttrium silicate SPA beads (Amersham). The beads are allowed to settle for one hr in the dark before the plates are counted in a Wallac 1450 Microbeta counter. The measured signal can be converted to activity relative to an uninhibited control (100%) and IC50 values can be calculated using the Xlfit extension to EXCEL.
`COc1cc2ncnc(N3CCSC(c4ccccc4)C3)c2cc1OC` (centres unmarked) [Compound 1, 6,7-Dimethoxy-4-(2-phenyl-thiomorpholin-4-yl)-quinazoline]: the IC50 was determined as 89 nM. Still for that read-out and setting: to `COc1cccc(C2CN(c3ncnc4cc(OC)c(OC)cc34)CCN2)c1` (centres unmarked) [Compound 2, 6,7-Dimethoxy-4-(3-(3-methoxyphenyl)-piperazin-1-yl)-quinazoline] belongs 33 nM; to `COc1cc2ncnc(N3CCOC(c4ccc(C)cc4)C3)c2cc1OC` (centres unmarked) [Compound 3, 6,7-Dimethoxy-4-(2-(4-methylphenyl)-morpholin-4-yl)-quinazoline], 79 nM; to `COc1cccc([C@@H]2CN(c3ncnc4cc(OC)c(OC)cc34)CCN2)c1` [Compound 4, 6,7-Dimethoxy-4-((R)-3-(3-methoxyphenyl)-piperazin-1-yl)-quinazoline], 600 nM.

Consider `COc1cccc([C@H]2CN(c3ncnc4cc(OC)c(OC)cc34)CCN2)c1` [Compound 5, 6,7-Dimethoxy-4-((S)-3-(3-methoxyphenyl)-piperazin-1-yl)-quinazoline], for which the concentration for half-maximal inhibition (IC50) amounted to 14 nM. Same read-out and setting: to `COc1cc2ncnc(N3CCN[C@H](c4ccccc4)C3)c2cc1OC` [Compound 6, 6,7-Dimethoxy-4-((R)-3-phenyl-piperazin-1-yl)-quinazoline] belongs 65 nM; to `COc1cc2ncnc(N3CCN[C@@H](c4ccccc4)C3)c2cc1OC` [Compound 7, 6,7-Dimethoxy-4-((S)-3-phenyl-piperazin-1-yl)-quinazoline], 90 nM; to `COc1cc2ncnc(N3CCNC(c4cc(OC)c(OC)c(OC)c4)C3)c2cc1OC` (centres unmarked) [Compound 8, 4-[3-(3,4,5-trimethoxyphenyl)-piperazin-1-yl]-6,7-dimethoxy-quinazoline], 180 nM. Same read-out and setting: the value for `COc1cc2ncnc(N3CCNC(c4ccccc4OC)C3)c2cc1OC` (centres unmarked) [Compound 9, 4-[3-(2-methoxyphenyl)-piperazin-1-yl]-6,7-dimethoxy-quinazoline] was 110 nM; that for `COc1cc2ncnc(N3CCOC(c4ccc(F)cc4)C3)c2cc1OC` (centres unmarked) [Compound 10, 6,7-Dimethoxy-4-(2-(4-fluorophenyl)-morpholin-4-yl)-quinazoline] was 200 nM. On to `COc1cc2ncnc(N3CCOC(c4ccc(Cl)cc4)C3)c2cc1OC` (centres unmarked) [Compound 11, 6,7-Dimethoxy-4-(2-(4-chlorophenyl)-morpholin-4-yl)-quinazoline], for which the IC50 is 260 nM. On the same count and under the same terms, the value for `COc1cc2ncnc(N3CCOC(c4ccc(C(F)(F)F)cc4)C3)c2cc1OC` (centres unmarked) [Compound 12, 6,7-Dimethoxy-4-(2-(4-trifluomethylphenyl)-morpholin-4-yl)-quinazoline] was 660 nM; that for `COc1cc2ncnc(N3CCOC(c4ccccc4Cl)C3)c2cc1OC` (centres unmarked) [Compound 13, 6,7-Dimethoxy-4-(2-(2-chlorophenyl)-morpholin-4-yl)-quinazoline] was 190 nM; that for `COc1cc2ncnc(N3CCNC(c4ccc(N(C)C)cc4)C3)c2cc1OC` (centres unmarked) [Compound 14, 4-[3-(4-dimethylaminophenyl)-piperazin-1-yl]-6,7-dimethoxy-quinazoline] was 62 nM. On to `COc1cc2ncnc(N3CCNC(c4ccc5c(c4)OCO5)C3)c2cc1OC` (centres unmarked) [Compound 15, 4-[3-(3,4-methylenedioxyphenyl)-piperazin-1-yl]-6,7-dimethoxy-quinazoline], for which the IC50 amounted to 35 nM. On the same count and under the same terms, to `COc1cc2ncnc(N3CCNC(c4cc(Cl)ccc4Cl)C3)c2cc1OC` (centres unmarked) [Compound 16, 4-[3-(2,5-dichlorophenyl)-piperazin-1-yl]-6,7-dimethoxy-quinazoline] belongs 170 nM.

In another assay the test system is rats.
Assay: not given
As to conditions: alone; cited from earlier work.
For the molecule `COc1ccc(Cc2nccc3cc(OC)c(OC)cc23)cc1OC` [Papaverin], the “catalepsy on its own” value is reported as “did not cause catalepsy on its own”.

The same assay, now with this note: with the D2 receptor antagonist haloperidol; cited from earlier work.
Consider `COc1ccc(Cc2nccc3cc(OC)c(OC)cc23)cc1OC` [Papaverin], for which the “cataleptic effect of haloperidol” value is given as “potentiated the cataleptic effect”.

The test system of the next assay is rats.
Assay: not given
As to conditions: cited from earlier work.
`COc1ccc(Cc2nccc3cc(OC)c(OC)cc23)cc1OC` [Papaverin]: the “hyperactivity induced by PCP” value is “reduced hyperactivity”.

A further assay deals with rats.
Assay: not given
To be noted: cited from earlier work. The source holds these as a separate data set.
For `COc1ccc(Cc2nccc3cc(OC)c(OC)cc23)cc1OC` [Papaverin], the “reduction of amphetamine induced hyperactivity” value is on record as “insignificant”.

As a reminder, the IC50 is the concentration at which inhibition is half-maximal.
